Experiments:
JEV = test: Time of drug addition assay, JEV in BHK-21 cells; format: cell-based; conditions: JEV MOI 0.1, BHK-21, 10 µM, viral RNA at 24 hpi
Protocol: Considering the mode of action of the compounds 3au and 3aq, they should satisfy this criteria. To evaluate this potential, time of addition experiment was conducted for both compounds to inhibit JEV infection. BHK-21 cells and the virus were pre-treated for 3 h with 10 µM of compounds followed by infection and subsequent incubation in presence of the same (pre + during + post). Alternatively, the compounds (10 µM) were added either during the infection (during + post) or at different times post-infection as indicated (Fig. 9C and D). Virus amplification was measured at 24 hpi by measuring viral RNA accumulation as described above. […] This sustained inhibition indicates a potential therapeutic window for intervention, highlighting the compounds' ability to impede viral replication after initial infection. […] Together, our data not only established the antiviral activity of the compounds against DENV2 and JEV but also pointed out the mechanism of action of these compounds during the specific steps of the virus life cycle.
BHK-21 cells were seeded in a 12-well cell culture plate at a density of (0.5 × 10^6 cells/well). Upon 85%–90% confluency, cells were infected with JEV virus at an MOI of 0.1. Cells were incubated for 1.5 h at 37 °C. […] Cells were harvested at 24 hpi, and the viral genomic RNA levels were quantified using qRT-PCR.

[1] = MTT cytotoxicity assay in SH-SY5Y cells; format: cell-based; conditions: human
Protocol: We further studied the effect of the compounds on JEV replication in the human neuroblastoma SH-SY5Y cells, which represents a suitable model cell line for a neuropathic virus, like JEV. At first, the cytotoxicity was studied for both compounds in SH-SY5Y cells. […] Then, the SH-SY5Y cells were infected with the JEV virus in the absence or presence of 3aq or 3au (10 µM), and viral genomic RNA copies were quantified using qRT-PCR at 24, 48, and 72 hpi, as described previously.
The MTT assay was performed to determine cellular metabolic activity as an indicator of cell viability, proliferation, and cytotoxicity. Thus, to determine whether these compounds had any toxic effects on cellular viability, an MTT assay was performed following the protocol described previously by Mosmann (1983) ([55], [56]). Briefly, BHK-21 and SH-SHY5Y cells were seeded into 96-well plates at a density of 20,000 cells/well. Almost 16–18 h later, the cells were treated with different concentrations of the compounds (3au and 3aq) for 24 h at 37 °C in 5% CO2. […] The absorbance of the solution in a 96-well plate was measured at 595 nm using a microplate reader (Epoch 2; BioTek Instruments). Each experiment was performed in triplicate, and the percentage of cell viability was determined as the ratio of the absorbance values of the experimental samples to the control solvent (DMSO) on the same plate.

DENV2 NS2B–NS3 protease = biological target: T1, DENV2 NS2B–NS3 protease (Dengue virus type 2, UniProt P14340); test: NS2B–NS3 protease steady-state kinetics and mode of inhibition; format: biochemical; conditions: for mode of inhibition: both Km and Vmax reduced, Lineweaver–Burk plot; for Vmax: increasing substrate concentrations
T1 construct: Activity of recombinant dengue 2 virus NS3 protease in the presence of a truncated NS2B co-factor; The N-terminal domain of NS3 contains a highly conserved protease-active core; made in house; host or cells: Escherichia coli BL21(DE3)
Protocol: As 3au and 3aq compounds emerged as the two most promising candidates, we characterized their NS2B–NS3 inhibitory activity in greater detail using the previously mentioned DENV NS2B–NS3 protease assay (Fig. 3D) ([39], [41]). Experiments were performed to determine the kinetic parameters, inhibition constants, and inhibition mechanisms of these compounds. Enzymatic activity and corresponding reaction velocity were measured with various substrate concentrations either in presence of the vehicle control or two different concentrations of compounds. Several inhibitory mechanisms, including competitive, uncompetitive, and mixed/non-competitive mechanisms, were explored for each compound. […] The double reciprocal plot (Lineweaver–Burk plot) ( Fig. 5C and D) also validates the mode of enzymatic inhibition against DENV NS2B–NS3 protease.
The selected compounds were analyzed using in vitro protease assays performed in black 96-well plates. Standard reaction mixtures (60 µL) containing 50 mM Tris·HCl (pH 8.5), 1 mM CHAPS, 20% glycerol, 10 nM DENV2 NS2B–NS3 protease, 10 µM inhibitor (dissolved in DMSO) or DMSO, and 10.0 µM tetra-peptide substrate trifluoroacetate-Nle-Lys-Arg-Arg-AMC (ALFA Chemicals) were added to the reaction mixture and incubated for 1 h at room temperature. All assays were performed in triplicate. The release of free AMC was measured using a Varioskan LUX multimode microplate reader (Thermo Fisher Scientific) at excitation and emission wavelengths of 380 and 460 nm, respectively. Control fluorescence values obtained in the absence of inhibitors were considered 100%, and those obtained in the presence of inhibitors were calculated as the percentage of inhibition of the control using Microsoft Excel and plotted using Origin Pro 2023b. The background AMC in the absence of protease was subtracted before data analysis. Further, protease assay was done using different concentration of the compounds (1, 10, and 100 µM) to evaluate the IC50 for the in vitro assay. IC50 curves were fitted and determined by fitting the nonlinear equation in Origin2023b software. A similar approach was used to analyze the enzymatic kinetics of protease inhibition. The reaction progress was monitored by the release of free aminomethylcoumarin (AMC), as previously described. The substrate was incubated with or without the inhibitor in the aforementioned reaction buffer in the presence of varying concentrations of the substrate. The reactions were initiated by the addition of the NS2B–NS3 protease. Protease activity was monitored for 1 h based on the initial rate of increase in fluorescence intensity at 460 nm, with an excitation wavelength of 380 nm. The results were analyzed using Origin Pro 2023b and the Michaelis–Menten equation to obtain the apparent Michaelis–Menten constants and maximal velocities. All assays were performed in triplicate. For each tested compound, […] different concentrations of the inhibitor (0, 10, and 25 µM) were used at various concentrations (0–250 μM) of the substrate. The mechanism of inhibition was determined by observing the deviations in the apparent Km and Vmax values.

T1 sequence (P14340 1476-1653): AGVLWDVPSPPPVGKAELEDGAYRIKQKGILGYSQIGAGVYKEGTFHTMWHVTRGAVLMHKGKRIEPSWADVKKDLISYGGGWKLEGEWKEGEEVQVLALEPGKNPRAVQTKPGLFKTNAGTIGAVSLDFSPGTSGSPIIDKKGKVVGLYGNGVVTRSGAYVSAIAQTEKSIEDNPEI
T1 sequence (P14340 1398-1437): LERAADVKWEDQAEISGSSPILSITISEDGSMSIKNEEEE

COc1ccc(-c2csc(N/N=C(\C)c3ccc(O)cc3)n2)cc1 [3aq]
inhibition of viral replication by time of addition (JEV): significantly inhibited viral replication even when added at 9 hpi
CC50 at 24 h [1]: 58.3 ± 4.31 µM
mode of inhibition (DENV2 NS2B–NS3 protease): uncompetitive
Vmax (DENV2 NS2B–NS3 protease; inhibitor 10 μM): 52.1 ± 3.3
Vmax (DENV2 NS2B–NS3 protease; inhibitor 25 μM): 18.4 ± 0.9

COc1ccc(-c2csc(N/N=C(\C)c3cc(O)cc(O)c3)n2)cc1 [3au]
inhibition of viral replication by time of addition (JEV): significantly inhibited viral replication even when added at 9 hpi
CC50 at 24 h [1]: 49.4 ± 3.65 µM
mode of inhibition (DENV2 NS2B–NS3 protease): uncompetitive
Vmax (DENV2 NS2B–NS3 protease; inhibitor 10 μM): 38.9 ± 1.9
Vmax (DENV2 NS2B–NS3 protease; inhibitor 25 μM): 21.4 ± 0.7

From article PMC11963559, “Identification of novel thiazole derivatives as flaviviral protease inhibitors effective against Dengue (DENV2) and Japanese encephalitis viruses” (Antimicrobial Agents and Chemotherapy, 2025)
